Where a name gives a salt, the structure may show the parent alone. Read-outs that look alike come from different tables or passages of the source.
System: HIV-1 strain 92HT599
Assay: Antiviral activity against HIV-1 strain 92HT599 in MT2 cells (p24 estimation)
Type: cell-based
Conditions: HIV-1 92HT599, ~96 hours
Procedure: Example 77: Evaluation of Compounds Antiviral Activity Against HIV-1 Strain 92HT599 in MT2 Cells
MT2 cells were infected with HIV-1 strain 92HT599 (10 TCID 50/30000 cells). The infected cells were plated at the concentration of 30,000 cells per well in 96 well plate. Test compound was added to the micro plate in defined format with the final concentration of DMSO (vehicle) is not more than 1%. Incubation was carried out in CO2 incubator for ˜96 hours for viral infection. At the end of incubation period an aliquot from each well was taken for p24 estimation. The quantitation of p24 is an index for antiviral activity of the compound. Percent inhibition was calculated with reference to control values (vehicle controls). p24 estimation was carried out using Advance biosciences kit as per the procedure detailed by supplier.

[1] = Human immunodeficiency virus 1, 0% serum binding assay, read-out: IC50 0% serum
[2] = Human immunodeficiency virus 1, 40% serum binding assay, read-out: IC50 40% serum

Row | SMILES | IC50 [1] [nM] | IC50 [2] [nM]
1 | Cc1ccc(C(=O)NC2(C(=O)N[C@@]34CC[C@]5(C)[C@H](CC[C@@H]6[C@@]7(C)CC[C@H](OC(=O)[C@H]8C[C@@H](C(=O)O)C8(C)C)C(C)(C)[C@@H]7CC[C@]65C)C3=C(C(C)C)C(=O)C4)CCC2)cn1 [Example 43, (1R,3S)-3-((((3aR,5aR,5bR,7aR,9S,11aR,11bR,13aS)-1-isopropyl-5a,5b,8,8,11a-pentamethyl-3a-(1-(6-methylnicotinamido)cyclobutane-1-carboxamido)-2-oxo-3,3a,4,5,5a,5b,6,7,7a,8,9,10,11,11a,11b,12,13,13a-octadecahydro-2H-cyclopenta[a]chrysen-9-yl)oxy)carbonyl)-2,2-dimethylcyclobutane-1-carboxylic acid] | < 3 | < 50
2 | CC(C)C1=C2[C@H]3CC[C@@H]4[C@@]5(C)CC[C@H](OC(=O)[C@H]6C[C@@H](C(=O)O)C6(C)C)C(C)(C)[C@@H]5CC[C@@]4(C)[C@]3(C)CC[C@@]2(NC(=O)C2(NC(=O)c3ccc(Cl)cc3)CCCC2)CC1=O [Example 46, (1R,3S)-3-((((3aR,5aR,5bR,7aR,9S,11aR,11bR,13aS)-3a-(1-(4-chlorobenzamido)cyclopentane-1-carboxamido)-1-isopropyl-5a,5b,8,8,11a-pentamethyl-2-oxo-3,3a,4,5,5a,5b,6,7,7a,8,9,10,11,11a,11b,12,13,13a-octadecahydro-2H-cyclopenta[a]chrysen-9-yl)oxy)carbonyl)-2,2-dimethylcyclobutane-1-carboxylic acid] | < 3 | < 50
3 | CC(C)C1=C2[C@H]3CC[C@@H]4[C@@]5(C)CC[C@H](OC(=O)[C@H]6C[C@@H](C(=O)O)C6(C)C)C(C)(C)[C@@H]5CC[C@@]4(C)[C@]3(C)CC[C@@]2(NC(=O)C2(NC(=O)c3ccc(Cl)cc3)CCCCC2)CC1=O [Example 48, (1R,3S)-3-((((3aR,5aR,5bR,7aR,9S,11aR,11bR,13aS)-3a-(1-(4-chlorobenzamido)cyclohexane-1-carboxamido)-1-isopropyl-5a,5b,8,8,11a-pentamethyl-2-oxo-3,3a,4,5,5a,5b,6,7,7a,8,9,10,11,11a,11b,12,13,13a-octadecahydro-2H-cyclopenta[a]chrysen-9-yl)oxy)carbonyl)-2,2-dimethylcyclobutane-1-carboxylic acid] | < 3 | < 50
4 | Cc1ccc(C(=O)NC2(C(=O)N[C@@]34CC[C@]5(C)[C@H](CC[C@@H]6[C@@]7(C)CC[C@H](OC(=O)[C@H]8C[C@@H](C(=O)O)C8(C)C)C(C)(C)[C@@H]7CC[C@]65C)C3=C(C(C)C)C(=O)C4)CCCCC2)cn1 [Example 49, (1R,3S)-3-((((3aR,5aR,5bR,7aR,9S,11aR,11bR,13aS)-1-isopropyl-5a,5b,8,8,11a-pentamethyl-3a-(1-(6-methylnicotinamido)cyclohexane-1-carboxamido)-2-oxo-3,3a,4,5,5a,5b,6,7,7a,8,9,10,11,11a,11b,12,13,13a-octadecahydro-2H-cyclopenta[a]chrysen-9-yl)oxy)carbonyl)-2,2-dimethylcyclobutane-1-carboxylic acid] | < 3 | < 50
5 | Cc1ccc(C(=O)NC2(C(=O)N[C@@]34CC[C@]5(C)[C@H](CC[C@@H]6[C@@]7(C)CC[C@H](OC(=O)[C@H]8C[C@@H](C(=O)O)C8(C)C)C(C)(C)[C@@H]7CC[C@]65C)C3=C(C(C)C)C(=O)C4)CCCCC2)cc1 [Example 50, (1R,3S)-3-((((3aR,5aR,5bR,7aR,9S,11aR,11bR,13aS)-1-isopropyl-5a,5b,8,8,11a-pentamethyl-3a-(1-(4-methylbenzamido)cyclohexane-1-carboxamido)-2-oxo-3,3a,4,5,5a,5b,6,7,7a,8,9,10,11,11a,11b,12,13,13a-octadecahydro-2H-cyclopenta[a]chrysen 9-yl)oxy)carbonyl)-2,2-dimethylcyclobutane-1-carboxylic acid] | < 3 | < 50
6 | CC(C)C1=C2[C@H]3CC[C@@H]4[C@@]5(C)CC[C@H](OC(=O)[C@H]6C[C@@H](C(=O)O)C6(C)C)C(C)(C)[C@@H]5CC[C@@]4(C)[C@]3(C)CC[C@@]2(NC(=O)C(C)(C)NC(=O)CN(C)C)CC1=O [Example 59, (1R,3S)-3-((((3aR,5aR,5bR,7aR,9S,11aR,11bR,13aS)-3a-(2-(2-(dimethylamino)acetamido)-2-methylpropanamido)-1-isopropyl-5a,5b,8,8,11a-pentamethyl-2-oxo-3,3a,4,5,5a,5b,6,7,7a,8,9,10,11,11a,11b,12,13,13a-octadecahydro-2H-cyclopenta[a]chrysen-9-yl)oxy)carbonyl)-2,2-dimethylcyclobutane-1-carboxylic acid] | < 3 | 50 to 200
7 | Cc1cccc(C(=O)NC(C)(C)C(=O)N[C@@]23CC[C@]4(C)[C@H](CC[C@@H]5[C@@]6(C)CC[C@H](OC(=O)[C@H]7C[C@@H](C(=O)O)C7(C)C)C(C)(C)[C@@H]6CC[C@]54C)C2=C(C(C)C)C(=O)C3)n1 [Example 60, (1R,3S)-3-((((3aR,5aR,5bR,7aR,9S,11aR,11bR,13aS)-1-isopropyl-5a,5b,8,8,11a-pentamethyl-3a-(2-methyl-2-(6-methylpicolinamido)propanamido)-2-oxo-3,3a,4,5,5a,5b,6,7,7a,8,9,10,11,11a,11b,12,13,13a-octadecahydro-2H-cyclopenta[a]chrysen-9-yl)oxy)carbonyl)-2,2-dimethylcyclobutane-1-carboxylic acid] | < 3 | < 50
8 | CC(C)C1=C2[C@H]3CC[C@@H]4[C@@]5(C)CC[C@H](OC(=O)[C@H]6C[C@@H](C(=O)O)C6(C)C)C(C)(C)[C@@H]5CC[C@@]4(C)[C@]3(C)CC[C@@]2(NC(=O)C(C)(C)NCc2ccccn2)CC1=O [Example 67, (1R,3S)-3-((((3aR,5aR,5bR,7aR,9S,11aR,11bR,13aS)-1-isopropyl-5a,5b,8,8,11a-pentamethyl-3a-(2-methyl-2-((pyridin-2-ylmethyl)amino)propan amido)-2-oxo-3,3a,4,5,5a,5b,6,7,7a,8,9,10,11,11a,11b,12,13,13a-octadecahydro-2H-cyclopenta[a]chrysen-9-yl)oxy)carbonyl)-2,2-dimethylcyclobutane-1-carboxylic acid] | < 3 | < 50
9 | CC(C)C1=C2[C@H]3CC[C@@H]4[C@@]5(C)CC[C@H](OC(=O)[C@H]6C[C@@H](C(=O)O)C6(C)C)C(C)(C)[C@@H]5CC[C@@]4(C)[C@]3(C)CC[C@@]2(NC(=O)C(C)(C)NCc2ccc(Cl)cc2)CC1=O [Example 68] | 3.01 to 10 | < 50
10 | CC(C)C1=C2[C@H]3CC[C@@H]4[C@@]5(C)CC[C@H](OC(=O)[C@H]6C[C@@H](C(=O)O)C6(C)C)C(C)(C)[C@@H]5CC[C@@]4(C)[C@]3(C)CC[C@@]2(NC(=O)C(C)(C)NCC2(c3ccc(Cl)cc3)CC2)CC1=O [Example 69, (1R,3S)-3-((((3aR,5aR,5bR,7aR,9S,11aR,11bR,13aS)-3a-(2-(((1-(4-chlorophenyl)cyclopropyl)methyl)amino)-2-methylpropanamido)-1-isopropyl-5a,5b,8,8,11a-pentamethyl-2-oxo-3,3a,4,5,5a,5b,6,7,7a,8,9,10,11,11a,11b,12,13,13a-octadecahydro-2H-cyclopenta[a]chrysen-9-yl)oxy)carbonyl)-2,2-dimethylcyclobutane-1-carboxylic acid] | > 10 | 50 to 200
11 | Cc1ccc(NC(=O)NC(C)(C)C(=O)N[C@@]23CC[C@]4(C)[C@H](CC[C@@H]5[C@@]6(C)CC[C@H](OC(=O)[C@H]7C[C@@H](C(=O)O)C7(C)C)C(C)(C)[C@@H]6CC[C@]54C)C2=C(C(C)C)C(=O)C3)cn1 [Example 71, (1R,3S)-3-((((3aR,5aR,5bR,7aR,9S,11aR,11bR,13aS)-1-isopropyl-5a,5b,8,8,11a-pentamethyl-3a-(2-methyl-2-(3-(6-methylpyridin-3-yl)ureido)propanamido)-2-oxo-3,3a,4,5,5a,5b,6,7,7a,8,9,10,11,11a,11b,12,13,13a-octadecahydro-2H-cyclopenta[a]chrysen-9-yl)oxy)carbonyl)-2,2-dimethylcyclobutane-1-carboxylic acid] | < 3 | 50 to 200
12 | CC(C)C1=C2[C@H]3CC[C@@H]4[C@@]5(C)CC[C@H](OC(=O)[C@H]6C[C@@H](C(=O)O)C6(C)C)C(C)(C)[C@@H]5CC[C@@]4(C)[C@]3(C)CC[C@@]2(NC(=O)C(C)(C)NCCN(C)C)CC1=O [Example 73, (1R,3S)-3-((((3aR,5aR,5bR,7aR,9S,11aR,11bR,13aS)-3a-(2-((2-(dimethylamino)ethyl)amino)-2-methylpropanamido)-1-isopropyl-5a,5b,8,8,11a-pentamethyl-2-oxo-3,3a,4,5,5a,5b,6,7,7a,8,9,10,11,11a,11b,12,13,13a-octadecahydro-2H-cyclopenta[a]chrysen-9-yl)oxy)carbonyl)-2,2-dimethylcyclobutane-1-carboxylic acid] | < 3 | < 50
13 | CC(C)C1=C2[C@H]3CC[C@@H]4[C@@]5(C)CC[C@H](OC(=O)[C@H]6C[C@@H](C(=O)O)C6(C)C)C(C)(C)[C@@H]5CC[C@@]4(C)[C@]3(C)CC[C@@]2(NC(=O)C(C)(C)N)CC1=O [Example 74, (1R,3S)-3-((((3aR,5aR,5bR,7aR,9S,11aR,11bR,13aS)-3a-(2-amino-2-methylpropanamido)-1-isopropyl-5a,5b,8,8,11a-pentamethyl-2-oxo-3,3a,4,5,5a,5b, 6,7,7a,8,9,10,11,11a,11b,12,13,13a-octadecahydro-2H-cyclopenta[a]chrysen-9-yl)oxy)carbonyl)-2,2-dimethylcyclobutane-1-carboxylic acid hydrochloride] | < 3 | < 50
